This is an account of results in patent US20260166162A1, “CARBON CHAIN SUBSTANCE FOR REGULATING TRANSMEMBRANE TRANSPORT AND FLUIDITY OF CELL MEMBRANES, AND PREPARATION AND USE THEREOF” (priority 2022, published 2026).

For one assay, the system named is 293T cells. The experiment in a line: Cellular phagocytosis of DiD-loaded lipid vesicles (nano-drugs) by 293T cells (Example II-51, Table II-29). It counts as cell-based. Conditions: 293T cells pretreated 4 h, DiD lipid vesicles 2 h, n=3, untreated control 226.46 ± 1.26.
The next assay relates to Hela cells. The experiment in a line: Cell membrane fluidity (Laurdan fluorescence recovery) in Hela cells. The assay is classed as cell-based.

On to `C/C=C/C(=O)O` [Crotonic acid], for which the Fluorescence intensity was 157.30 ± 20.43 in the assay with 293T cells (2 nM); 159.29 ± 0.43 in the assay on 293T cells (5 nM); 94.34 ± 0.43 in the assay with 293T cells (10 nM); 51.34 ± 0.43 with 293T cells (50 nM); 59.65 ± 1.57 with 293T cells (100 nM); 458.20 ± 20.41 in the assay on 293T cells (1 uM). In addition, the results for the Fluorescence intensity in the assay with 293T cells (10 uM), with 293T cells (50 uM) and in the assay with 293T cells (100 uM) were 326.69 ± 20.40, 200.73 ± 10.31 and 218.13 ± 8.22, respectively.
As for `CCCCCCCC/C=C\CCCCCCCC(=O)O.OCCO` [Ethylene glycol-oleic acid], the Fluorescence intensity is listed as 182.21 ± 18.23 with 293T cells (2 nM); 121.07 ± 11.26 in the assay with 293T cells (5 nM); 69.12 ± 4.26 in the assay on 293T cells (10 nM); 64.90 ± 1.56 in the assay with 293T cells (50 nM); 44.23 ± 4.26 with 293T cells (100 nM); 368.97 ± 18.56 with 293T cells (1 uM). Further, the Fluorescence intensity with 293T cells (50 uM) was 69.34 ± 5.32; in the assay with 293T cells (100 uM) it was 58.72 ± 8.75.
`CCCCCCCCCCCCCCCC(=O)OCC1OC(O)C(O)C(O)C1O` (centres unmarked) [Glucose-C16]: the Fluorescence intensity is given as 134.65 ± 15.22 in the assay on 293T cells (2 nM); 114.00 ± 11.02 with 293T cells (5 nM); 94.34 ± 4.57 with 293T cells (10 nM); 96.63 ± 6.54 in the assay with 293T cells (50 nM); 172.88 ± 26.33 in the assay with 293T cells (100 nM); 198.54 ± 8.55 with 293T cells (1 uM). The Fluorescence intensity came to 170.16 ± 20.33 with 293T cells (10 uM), 110.15 ± 10.22 with 293T cells (50 uM) and 104.90 ± 4.91 in the assay on 293T cells (100 uM).
`CCC=CCC=CCC=CCCCCCCCC(=O)OCC1OC(O)C(O)C(O)C1O` (centres unmarked) [Glucose-linolenic acid]: the “Fluorescence recovery rate %” value in the assay on Hela cells (2 nM, 20 s) worked out at 63.78%; with Hela cells (2 nM, 40 s), 64.18%; with Hela cells (2 nM, 60 s) it was 65.22%; in the assay with Hela cells (2 nM, 80 s), 65.16%; with Hela cells (5 nM, 20 s), 64.35%; in the assay on Hela cells (5 nM, 40 s) it was 64.83%. For the same compound, the “Fluorescence recovery rate %” value with Hela cells (5 nM, 60 s) was 65.17%; in the assay with Hela cells (5 nM, 80 s), 66.59%; with Hela cells (10 nM, 20 s), 64.76%; in the assay on Hela cells (10 nM, 40 s) it was 64.87%; in the assay on Hela cells (10 nM, 60 s), 65.11%; in the assay on Hela cells (10 nM, 80 s), 66.83%. Besides, the “Fluorescence recovery rate %” value was found to be 63.24% with Hela cells (50 nM, 20 s); 64.10% in the assay with Hela cells (50 nM, 40 s); 64.54% in the assay on Hela cells (50 nM, 60 s); 65.23% in the assay with Hela cells (50 nM, 80 s); 63.11% in the assay on Hela cells (50 μM, 20 s); 70.49% in the assay with Hela cells (50 μM, 40 s). Further, the “Fluorescence recovery rate %” value in the assay with Hela cells (50 μM, 60 s) amounted to 74.88%; in the assay with Hela cells (50 μM, 80 s), 79.24%; in the assay on Hela cells (100 μM, 20 s) it was 65.93%; in the assay with Hela cells (100 μM, 40 s), 69.87%; in the assay with Hela cells (100 μM, 60 s) it was 75.03%; in the assay on Hela cells (100 μM, 80 s) it was 80.83%.
For `CCCCCC(=O)O` [Hexanoic acid], the Fluorescence intensity worked out at 131.26 ± 11.25 in the assay on 293T cells (2 nM); 114.00 ± 14.2 in the assay with 293T cells (5 nM); 94.34 ± 4.25 in the assay on 293T cells (10 nM); 96.63 ± 6.32 in the assay on 293T cells (50 nM); 30.71 ± 1.25 with 293T cells (100 nM); 102.07 ± 12.2 in the assay on 293T cells (1 uM). The results for the Fluorescence intensity in the assay on 293T cells (10 uM), in the assay on 293T cells (50 uM) and in the assay with 293T cells (100 uM) were 125.10 ± 12.55, 288.42 ± 8.32 and 325.58 ± 15.26, respectively.
In the case of `CCCCCCCCCCCC(=O)NCCCCC(N)C(=O)O` (centres unmarked) [Lys-C12], the Fluorescence intensity is reported as 175.30 ± 15.23 in the assay with 293T cells (2 nM); 103.11 ± 10.33 with 293T cells (5 nM); 49.05 ± 5.26 in the assay on 293T cells (10 nM); 24.16 ± 3.36 with 293T cells (50 nM); 25.45 ± 5.22 in the assay with 293T cells (100 nM); 367.61 ± 27.11 in the assay on 293T cells (1 uM). Further, the Fluorescence intensity with 293T cells (10 uM) is 417.28 ± 17.23; in the assay on 293T cells (50 uM), 110.76 ± 8.54; with 293T cells (100 uM), 104.90 ± 6.23.
Turning to `CCCCCCCCCCCCCCCCCCCCCCCC(=O)OC(C)C(N)C(=O)O` (centres unmarked) [Threonine-C24], the Fluorescence intensity was found to be 39.09 ± 7.89 with 293T cells (2 nM); 38.29 ± 5.26 in the assay with 293T cells (5 nM); 22.90 ± 1.22 in the assay with 293T cells (10 nM); 12.84 ± 2.22 in the assay with 293T cells (50 nM); 14.81 ± 1.33 in the assay with 293T cells (100 nM); 435.55 ± 15.26 in the assay with 293T cells (1 uM). Besides, the Fluorescence intensity in the assay with 293T cells (10 uM) was determined as 416.78 ± 12.33; with 293T cells (50 uM), 46.51 ± 5.21; in the assay on 293T cells (100 uM) it was 30.64 ± 5.55.
As for `CCCCCC/C=C\CCCCCCCC(=O)OC(C)C(N)C(=O)O` (stereo not drawn) [Threonine-cis-9-hexadecanoic acid], the Fluorescence intensity in the assay with 293T cells (2 nM) came to 142.94; in the assay with 293T cells (5 nM), 67.71 ± 5.67; with 293T cells (10 nM) it was 64.00 ± 4.06; in the assay on 293T cells (50 nM), 74.71 ± 5.36; in the assay with 293T cells (100 nM), 56.71 ± 6.74; with 293T cells (1 uM), 153.25 ± 13.25. Besides, the results for the Fluorescence intensity in the assay with 293T cells (10 uM), in the assay on 293T cells (50 uM) and with 293T cells (100 uM) were 126.64 ± 11.02, 37.23 ± 2.35 and 61.12 ± 5.21, respectively.
Regarding `CCCCCCCC/C=C\CCCCCCCC(=O)OCCOCC(OCCO)C1OCC(OCCO)C1OCCO` (centres unmarked) [Tween-80], the Fluorescence intensity came out at 45.04 in the assay on 293T cells (2 nM); 32.41 with 293T cells (5 nM); 21.85 with 293T cells (10 nM); 17.28 in the assay on 293T cells (50 nM); 11.89 with 293T cells (100 nM); 152.11 in the assay with 293T cells (1 uM). For the same compound, the Fluorescence intensity with 293T cells (10 uM) came out at 103.58; in the assay with 293T cells (50 uM) it was 18.48; in the assay with 293T cells (100 uM), 13.34 ± 3.24.
Regarding `CCCCCCCCC=CCCCCCCCC(=O)OCC(O)C1OC(=O)C(O)=C1O` (centres unmarked) [Vc-oleic acid], the “Fluorescence recovery rate %” value in the assay on Hela cells (2 nM, 20 s) is recorded as 61.48%; with Hela cells (2 nM, 40 s), 62.33%; in the assay on Hela cells (2 nM, 60 s), 63.41%; in the assay with Hela cells (2 nM, 80 s), 64.57%; with Hela cells (5 nM, 20 s), 61.87%; in the assay on Hela cells (5 nM, 40 s) it was 62.99%. Also, the “Fluorescence recovery rate %” value in the assay on Hela cells (5 nM, 60 s) is reported as 63.47%; in the assay on Hela cells (5 nM, 80 s) it was 63.21%; in the assay on Hela cells (10 nM, 20 s) it was 63.72%; in the assay on Hela cells (10 nM, 40 s), 63.75%; in the assay on Hela cells (10 nM, 60 s) it was 64.67%; in the assay on Hela cells (10 nM, 80 s) it was 65.92%. Also, the “Fluorescence recovery rate %” value with Hela cells (50 nM, 20 s) stood at 62.43%; with Hela cells (50 nM, 40 s), 62.62%; in the assay on Hela cells (50 nM, 60 s), 63.37%; in the assay on Hela cells (50 nM, 80 s), 64.24%; in the assay on Hela cells (50 μM, 20 s), 62.54%; in the assay on Hela cells (50 μM, 40 s), 67.11%. Also, the “Fluorescence recovery rate %” value in the assay with Hela cells (50 μM, 60 s) turned out to be 74.55%; in the assay with Hela cells (50 μM, 80 s), 76.57%; in the assay on Hela cells (100 μM, 20 s), 61.66%; with Hela cells (100 μM, 40 s), 73.65%; in the assay with Hela cells (100 μM, 60 s), 77.32%; with Hela cells (100 μM, 80 s) it was 78.61%.
Take adenosine monophosphate-linoleic acid: the “Fluorescence recovery rate %” value in the assay with Hela cells (2 nM, 20 s) came out at 62.11%; with Hela cells (2 nM, 40 s), 62.98%; with Hela cells (2 nM, 60 s), 64.26%; with Hela cells (2 nM, 80 s) it was 68.17%; with Hela cells (5 nM, 20 s) it was 63.44%; in the assay with Hela cells (5 nM, 40 s), 64.22%. The “Fluorescence recovery rate %” value was determined as 65.78% in the assay with Hela cells (5 nM, 60 s); 66.39% with Hela cells (5 nM, 80 s); 63.22% with Hela cells (10 nM, 20 s); 63.48% in the assay with Hela cells (10 nM, 40 s); 64.42% in the assay on Hela cells (10 nM, 60 s); 65.93% in the assay on Hela cells (10 nM, 80 s). Further, the “Fluorescence recovery rate %” value was 64.25% in the assay with Hela cells (50 nM, 20 s); 64.66% in the assay with Hela cells (50 nM, 40 s); 65.33% with Hela cells (50 nM, 60 s); 66.23% in the assay with Hela cells (50 nM, 80 s); 64.44% in the assay on Hela cells (50 μM, 20 s); 70.73% in the assay on Hela cells (50 μM, 40 s). Also, the “Fluorescence recovery rate %” value in the assay on Hela cells (50 μM, 60 s) stood at 74.64%; with Hela cells (50 μM, 80 s), 80.57%; in the assay on Hela cells (100 μM, 20 s) it was 63.22%; with Hela cells (100 μM, 40 s) it was 67.48%; in the assay with Hela cells (100 μM, 60 s), 75.42%; in the assay on Hela cells (100 μM, 80 s) it was 79.93%.
